# Measurements as given in ChEMBL document CHEMBL2150993, “Substituted thiazoles VII. Synthesis and antitumor activity of certain 2-(substituted amino)-4-phenyl-1,3-thiazole analogs” (2012).
# Key:
# Assay type in all cases: functional
# Conditions in all cases: at 10 µM
# [1] = test system: CCRF-CEM; experiment: Growth inhibition of human CCRF-CEM cells after 48 hrs by cell counting analysis
# [2] = test system: HL-60; experiment: Growth inhibition of human HL60 cells after 48 hrs by cell counting analysis
# [3] = test system: K562; experiment: Growth inhibition of human K562 cells after 48 hrs by cell counting analysis
# [4] = test system: RPMI-8226; experiment: Growth inhibition of human RPMI8226 cells after 48 hrs by cell counting analysis
# [5] = test system: SR; experiment: Growth inhibition of human SR cells after 48 hrs by cell counting analysis
# [6] = test system: A549; experiment: Growth inhibition of human A549 cells after 48 hrs by cell counting analysis
# [7] = test system: EKVX; experiment: Growth inhibition of human EKVX cells after 48 hrs by cell counting analysis
# [8] = test system: HOP-62; experiment: Growth inhibition of human HOP62 cells after 48 hrs by cell counting analysis
# [9] = test system: HOP-92; experiment: Growth inhibition of human HOP92 cells after 48 hrs by cell counting analysis
# [10] = test system: NCI-H226; experiment: Growth inhibition of human NCI-H226 cells after 48 hrs by cell counting analysis
# [11] = test system: NCI-H23; experiment: Growth inhibition of human NCI-H23 cells after 48 hrs by cell counting analysis
# [12] = Growth inhibition of human NCI-322M cells after 48 hrs by cell counting analysis
# [13] = test system: NCI-H522; experiment: Growth inhibition of human NCI-H522 cells after 48 hrs by cell counting analysis
# [14] = test system: HCC 2998; experiment: Growth inhibition of human HCC2998 cells after 48 hrs by cell counting analysis
# [15] = test system: HCT-15; experiment: Growth inhibition of human HCT15 cells after 48 hrs by cell counting analysis
# [16] = test system: HT-29; experiment: Growth inhibition of human HT-29 cells after 48 hrs by cell counting analysis
# [17] = test system: KM12; experiment: Growth inhibition of human KM12 cells after 48 hrs by cell counting analysis
# [18] = test system: SW-620; experiment: Growth inhibition of human SW620 cells after 48 hrs by cell counting analysis
# [19] = test system: SF-268; experiment: Growth inhibition of human SF268 cells after 48 hrs by cell counting analysis
# [20] = test system: SF-295; experiment: Growth inhibition of human SF295 cells after 48 hrs by cell counting analysis
# [21] = test system: SF-539; experiment: Growth inhibition of human SF539 cells after 48 hrs by cell counting analysis
# [22] = test system: SNB-19; experiment: Growth inhibition of human SNB19 cells after 48 hrs by cell counting analysis
# [23] = test system: SNB-75; experiment: Growth inhibition of human SNB75 cells after 48 hrs by cell counting analysis
# [24] = test system: U-251; experiment: Growth inhibition of human U251 cells after 48 hrs by cell counting analysis
# [25] = test system: LOX IMVI; experiment: Growth inhibition of human LOXIMVI cells after 48 hrs by cell counting analysis
# [26] = test system: Malme-3M; experiment: Growth inhibition of human MALME-3M cells after 48 hrs by cell counting analysis
# [27] = test system: M14; experiment: Growth inhibition of human M14 cells after 48 hrs by cell counting analysis
# [28] = test system: MDA-MB-435; experiment: Growth inhibition of human MDA-MB-435 cells after 48 hrs by cell counting analysis
# [29] = test system: SK-MEL-2; experiment: Growth inhibition of human SK-MEL-2 cells after 48 hrs by cell counting analysis
# [30] = test system: SK-MEL-28; experiment: Growth inhibition of human SK-MEL-28 cells after 48 hrs by cell counting analysis
# [31] = test system: SK-MEL-5; experiment: Growth inhibition of human SK-MEL-5 cells after 48 hrs by cell counting analysis
# [32] = test system: UACC-257; experiment: Growth inhibition of human UACC257 cells after 48 hrs by cell counting analysis
# [33] = test system: UACC-62; experiment: Growth inhibition of human UACC62 cells after 48 hrs by cell counting analysis
# [34] = test system: IGROV-1; experiment: Growth inhibition of human IGROV1 cells after 48 hrs by cell counting analysis
# [35] = test system: OVCAR-3; experiment: Growth inhibition of human OVCAR3 cells after 48 hrs by cell counting analysis
# [36] = test system: OVCAR-4; experiment: Growth inhibition of human OVCAR4 cells after 48 hrs by cell counting analysis
# [37] = test system: OVCAR-5; experiment: Growth inhibition of human OVCAR5 cells after 48 hrs by cell counting analysis
# [38] = test system: OVCAR-8; experiment: Growth inhibition of human OVCAR8 cells after 48 hrs by cell counting analysis
# [39] = Growth inhibition of human NCI-ADR-RES cells after 48 hrs by cell counting analysis
# [40] = test system: SK-OV-3; experiment: Growth inhibition of human SKOV3 cells after 48 hrs by cell counting analysis
# [41] = test system: ACHN; experiment: Growth inhibition of human ACHN cells after 48 hrs by cell counting analysis
# [42] = test system: CAKI-1; experiment: Growth inhibition of human Caki1 cells after 48 hrs by cell counting analysis
# [43] = test system: RXF 393; experiment: Growth inhibition of human RXF393 cells after 48 hrs by cell counting analysis
# [44] = test system: SN12C; experiment: Growth inhibition of human SN12C cells after 48 hrs by cell counting analysis
# [45] = test system: TK-10; experiment: Growth inhibition of human TK10 cells after 48 hrs by cell counting analysis
# [46] = test system: UO-31; experiment: Growth inhibition of human UO31 cells after 48 hrs by cell counting analysis
# [47] = test system: PC-3; experiment: Growth inhibition of human PC3 cells after 48 hrs by cell counting analysis
# [48] = test system: MCF7; experiment: Growth inhibition of human MCF7 cells after 48 hrs by cell counting analysis
# [49] = test system: MDA-MB-231; experiment: Growth inhibition of human MDA-MB-231 cells after 48 hrs by cell counting analysis
# [50] = test system: BT-549; experiment: Growth inhibition of human BT549 cells after 48 hrs by cell counting analysis
# [51] = test system: T47D; experiment: Growth inhibition of human T47D cells after 48 hrs by cell counting analysis
# [52] = test system: MDA-MB-468; experiment: Growth inhibition of human MDA-MB-468 cells after 48 hrs by cell counting analysis
# [53] = test system: MOLT-4; experiment: Growth inhibition of human MOLT4 cells after 48 hrs by cell counting analysis
# [54] = test system: HCT-116; experiment: Growth inhibition of human HCT116 cells after 48 hrs by cell counting analysis
smiles,measurement,setting,value
O=C(CN1CCN(c2ccccc2)CC1)Nc1nc(-c2ccc(Br)cc2)cs1,growth inhibition (GI),[1],22.2%
same,growth inhibition (GI),[2],27.1%
same,growth inhibition (GI),[3],70.7%
same,growth inhibition (GI),[4],33.6%
same,growth inhibition (GI),[5],<10%
same,growth inhibition (GI),[6],30.8%
same,growth inhibition (GI),[7],26.7%
same,growth inhibition (GI),[8],<10%
same,growth inhibition (GI),[9],<10%
same,growth inhibition (GI),[10],20.2%
same,growth inhibition (GI),[11],22.5%
same,growth inhibition (GI),[12],20.5%
same,growth inhibition (GI),[13],34.5%
same,growth inhibition (GI),[14],21%
same,growth inhibition (GI),[15],26.1%
same,growth inhibition (GI),[16],37.7%
same,growth inhibition (GI),[17],<10%
same,growth inhibition (GI),[18],<10%
same,growth inhibition (GI),[19],17%
same,growth inhibition (GI),[20],20.9%
same,growth inhibition (GI),[21],<10%
same,growth inhibition (GI),[22],23.9%
same,growth inhibition (GI),[23],17.9%
same,growth inhibition (GI),[24],<10%
same,growth inhibition (GI),[25],11.6%
same,growth inhibition (GI),[26],13.8%
same,growth inhibition (GI),[27],15.7%
same,growth inhibition (GI),[28],23.9%
same,growth inhibition (GI),[29],14.5%
same,growth inhibition (GI),[30],<10%
same,growth inhibition (GI),[31],39.4%
same,growth inhibition (GI),[32],13.7%
same,growth inhibition (GI),[33],40.1%
same,growth inhibition (GI),[34],34.3%
same,growth inhibition (GI),[35],<10%
same,growth inhibition (GI),[36],<10%
same,growth inhibition (GI),[37],<10%
same,growth inhibition (GI),[38],11.9%
same,growth inhibition (GI),[39],30.9%
same,growth inhibition (GI),[40],<10%
same,growth inhibition (GI),[41],15.7%
same,growth inhibition (GI),[42],33.5%
same,growth inhibition (GI),[43],13.6%
same,growth inhibition (GI),[44],23.7%
same,growth inhibition (GI),[45],28.3%
same,growth inhibition (GI),[46],54.6%
same,growth inhibition (GI),[47],28.5%
same,growth inhibition (GI),[48],41.2%
same,growth inhibition (GI),[49],22.2%
same,growth inhibition (GI),[50],13.6%
same,growth inhibition (GI),[51],41.8%
same,growth inhibition (GI),[52],55.6%
same,growth inhibition (GI),[53],47.6%
same,growth inhibition (GI),[54],33.1%
